These are literature values, as cited in patent US11083734B2 (ACUCORT AB, priority 2014, dated 2021).

For data set [1] the following is noted: humans, oral administration, literature and product information.

Regarding `C[C@@H]1C[C@H]2[C@@H]3CCC4=CC(=O)C=C[C@]4(C)[C@@]3(F)[C@@H](O)C[C@]2(C)[C@@]1(O)C(=O)COP(=O)(O)O` [dexamethasone sodium phosphate], the solubility in water result is on record as “freely soluble”.

`C[C@@H]1C[C@H]2[C@@H]3CCC4=CC(=O)C=C[C@]4(C)[C@@]3(F)[C@@H](O)C[C@]2(C)[C@@]1(O)C(=O)CO` [dexamethasone]: the “solubility in anhydrous ethanol” value is given as “sparingly soluble” and the solubility in water entry is reported as “practically insoluble”. For the same molecule, the “t(max)” value in data set [1] was around 1.5 h.
